ChEMBL document CHEMBL4680374, “Carbamate and N-Pyrimidine Mitigate Amide Hydrolysis: Structure-Based Drug Design of Tetrahydroquinoline IDO1 Inhibitors” (ACS Med Chem Lett, 2021)
In brackets after ≈: the same amount, converted by molar mass. Activity calls are given as the source filed them. The rule behind the calls is not given here.

Experiments:
[1] = Lipophilicity, log D of compound in PBS buffer at pH 7 at 200 uM incubated for 24 hrs in shaker by UPLC/DAD analysis; format: physicochemical
[2] = Solubility of compound in PBS buffer at pH 7 at 200 uM incubated for 24 hrs in shaker by UPLC-DAD analysis; format: physicochemical
[3] = Solubility of compound in PBS buffer at pH 2 at 200 uM incubated for 24 hrs in shaker by UPLC-DAD analysis; format: physicochemical
[4] = target: Tryptophan 2,3-dioxygenase (Homo sapiens) (UniProt P48775); experiment: Inhibition of TDO in human SW48 cells assessed as inhibition of N-formylkynurenine production; format: cell-based
Sequence of Tryptophan 2,3-dioxygenase (Homo sapiens) (P48775 whole entry, looked up): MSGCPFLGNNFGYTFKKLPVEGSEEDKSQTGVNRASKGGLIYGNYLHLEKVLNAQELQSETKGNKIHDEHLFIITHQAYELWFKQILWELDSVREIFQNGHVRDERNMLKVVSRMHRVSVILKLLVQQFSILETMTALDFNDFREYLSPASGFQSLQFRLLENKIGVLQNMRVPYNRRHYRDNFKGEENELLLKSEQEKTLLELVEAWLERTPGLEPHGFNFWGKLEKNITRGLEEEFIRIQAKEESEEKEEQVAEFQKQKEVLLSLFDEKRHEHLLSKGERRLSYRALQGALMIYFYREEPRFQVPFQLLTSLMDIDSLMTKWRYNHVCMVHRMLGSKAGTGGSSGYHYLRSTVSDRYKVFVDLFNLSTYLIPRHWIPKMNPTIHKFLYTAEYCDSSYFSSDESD

[5] = Metabolic stability in human hepatocytes at 30 uM measured upto 90 mins by LC-MS analysis; format: ADME, cell-based, Hepatocyte
[6] = Plasma clearance in rat at 2 mg/kg, po or 1 mg/kg, iv; format: ADME, organism-based
[7] = Half life in rat at 2 mg/kg, po or 1 mg/kg, iv; format: ADME, organism-based; conditions: in vivo
[8] = Metabolic stability in rat hepatocytes at 30 uM measured upto 90 mins by LC-MS analysis; format: ADME, cell-based, Hepatocyte
[9] = target: Voltage-gated inwardly rectifying potassium channel KCNH2 (Homo sapiens, UniProt Q12809); experiment: Displacement of [35S]-MK499 binding to human ERG expressed in HEK293 cells incubated for 2 hrs by liquid scintillation counting method; format: cell-based
Sequence of Voltage-gated inwardly rectifying potassium channel KCNH2 (Q12809 whole entry): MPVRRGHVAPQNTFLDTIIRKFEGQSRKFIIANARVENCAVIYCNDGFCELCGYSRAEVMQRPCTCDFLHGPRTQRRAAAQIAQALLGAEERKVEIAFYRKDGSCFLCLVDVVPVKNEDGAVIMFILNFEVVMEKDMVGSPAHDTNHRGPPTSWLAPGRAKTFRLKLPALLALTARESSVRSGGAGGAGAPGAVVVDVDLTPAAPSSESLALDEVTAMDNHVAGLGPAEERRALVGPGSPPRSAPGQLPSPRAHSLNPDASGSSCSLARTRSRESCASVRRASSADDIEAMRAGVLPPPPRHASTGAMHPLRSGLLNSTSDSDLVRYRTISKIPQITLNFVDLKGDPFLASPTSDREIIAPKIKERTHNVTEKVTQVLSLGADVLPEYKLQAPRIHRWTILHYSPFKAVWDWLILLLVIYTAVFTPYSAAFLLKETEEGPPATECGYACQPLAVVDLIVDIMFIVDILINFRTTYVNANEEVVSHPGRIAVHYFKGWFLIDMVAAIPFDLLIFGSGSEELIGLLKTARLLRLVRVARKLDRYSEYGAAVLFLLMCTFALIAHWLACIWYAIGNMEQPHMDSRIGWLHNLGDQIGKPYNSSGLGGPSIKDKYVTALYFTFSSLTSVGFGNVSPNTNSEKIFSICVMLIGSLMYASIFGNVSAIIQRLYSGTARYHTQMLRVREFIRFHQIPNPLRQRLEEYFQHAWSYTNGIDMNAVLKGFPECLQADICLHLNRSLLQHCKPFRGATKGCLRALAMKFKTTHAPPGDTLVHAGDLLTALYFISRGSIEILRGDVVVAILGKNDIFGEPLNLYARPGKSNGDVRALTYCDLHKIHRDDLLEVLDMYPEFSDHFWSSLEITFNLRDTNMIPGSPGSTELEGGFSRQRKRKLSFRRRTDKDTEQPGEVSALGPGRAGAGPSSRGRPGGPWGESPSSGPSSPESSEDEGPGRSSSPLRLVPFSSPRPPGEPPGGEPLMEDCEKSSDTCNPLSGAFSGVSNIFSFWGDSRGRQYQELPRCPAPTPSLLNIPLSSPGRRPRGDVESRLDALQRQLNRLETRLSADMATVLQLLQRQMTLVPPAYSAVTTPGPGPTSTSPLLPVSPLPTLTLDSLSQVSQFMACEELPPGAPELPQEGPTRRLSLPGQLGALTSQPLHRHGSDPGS

Cytochrome P450 2C9 = Cytochrome P450 2C9 (Homo sapiens, UniProt P11712); experiment: Inhibition of CYP2C9 (unknown origin); format: ADME
Sequence of Cytochrome P450 2C9 (P11712 whole entry): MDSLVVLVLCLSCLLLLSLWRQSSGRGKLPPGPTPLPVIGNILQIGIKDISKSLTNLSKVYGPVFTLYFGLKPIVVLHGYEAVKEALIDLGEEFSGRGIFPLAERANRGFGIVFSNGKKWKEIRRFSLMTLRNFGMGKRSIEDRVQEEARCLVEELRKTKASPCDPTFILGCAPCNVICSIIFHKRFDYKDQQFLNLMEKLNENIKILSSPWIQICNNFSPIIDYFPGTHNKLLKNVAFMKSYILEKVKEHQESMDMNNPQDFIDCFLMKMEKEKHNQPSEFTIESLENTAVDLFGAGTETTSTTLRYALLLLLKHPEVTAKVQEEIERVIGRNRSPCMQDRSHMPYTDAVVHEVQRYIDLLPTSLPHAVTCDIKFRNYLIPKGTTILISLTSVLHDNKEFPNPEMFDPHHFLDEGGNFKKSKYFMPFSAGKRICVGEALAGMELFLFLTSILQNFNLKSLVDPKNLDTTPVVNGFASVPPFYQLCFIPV

[10] = Oral bioavailability in rat at 2 mg/kg; format: ADME, organism-based; conditions: in vivo
[11] = Protein binding in human plasma assessed as unbound fraction; format: ADME, cell-free
[12] = Inhibition of Ca ion channel (unknown origin); parameters: species or system Homo sapiens
[13] = Apparent permeability of compound; format: ADME; conditions: not told
Cytochrome P450 3A4 = Cytochrome P450 3A4 (Homo sapiens, UniProt P08684); experiment: Inhibition of CYP3A4 (unknown origin); format: ADME
Sequence of Cytochrome P450 3A4 (P08684 whole entry): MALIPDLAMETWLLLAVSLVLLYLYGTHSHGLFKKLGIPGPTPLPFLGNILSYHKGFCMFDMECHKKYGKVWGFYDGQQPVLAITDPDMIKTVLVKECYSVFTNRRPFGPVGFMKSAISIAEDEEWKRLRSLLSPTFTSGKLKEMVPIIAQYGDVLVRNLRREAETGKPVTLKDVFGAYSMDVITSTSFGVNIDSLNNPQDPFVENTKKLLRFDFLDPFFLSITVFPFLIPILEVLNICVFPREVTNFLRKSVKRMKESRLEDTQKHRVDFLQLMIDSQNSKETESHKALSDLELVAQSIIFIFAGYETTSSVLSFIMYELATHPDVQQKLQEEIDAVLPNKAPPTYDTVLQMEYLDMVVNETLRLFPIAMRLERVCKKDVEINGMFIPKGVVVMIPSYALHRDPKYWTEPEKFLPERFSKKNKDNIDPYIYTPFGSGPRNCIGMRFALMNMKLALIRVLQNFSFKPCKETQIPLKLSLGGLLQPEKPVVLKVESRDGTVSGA

[14] = Unbound clearance in rat at 2 mg/kg, po or 1 mg/kg, iv; format: ADME, organism-based; conditions: in vivo
[15] = Inhibition of Na ion channel (unknown origin); parameters: species or system Homo sapiens
[16] = Protein binding in rat plasma assessed as unbound fraction; format: ADME, cell-free
[17] = Drug metabolism in human hepatocytes assessed as oxidative metabolite formation at 30 uM measured upto 90 mins by LC-MS analysis; format: ADME, cell-based, Hepatocyte
[18] = Drug metabolism in rat hepatocytes assessed as oxidative metabolite formation at 30 uM measured upto 90 mins by LC-MS analysis; format: ADME, cell-based, Hepatocyte
[19] = target: Indoleamine 2,3-dioxygenase 1 (Homo sapiens) (UniProt P14902); conditions: Blood, time 1095.0 min
Sequence of Indoleamine 2,3-dioxygenase 1 (Homo sapiens) (P14902 whole entry, looked up): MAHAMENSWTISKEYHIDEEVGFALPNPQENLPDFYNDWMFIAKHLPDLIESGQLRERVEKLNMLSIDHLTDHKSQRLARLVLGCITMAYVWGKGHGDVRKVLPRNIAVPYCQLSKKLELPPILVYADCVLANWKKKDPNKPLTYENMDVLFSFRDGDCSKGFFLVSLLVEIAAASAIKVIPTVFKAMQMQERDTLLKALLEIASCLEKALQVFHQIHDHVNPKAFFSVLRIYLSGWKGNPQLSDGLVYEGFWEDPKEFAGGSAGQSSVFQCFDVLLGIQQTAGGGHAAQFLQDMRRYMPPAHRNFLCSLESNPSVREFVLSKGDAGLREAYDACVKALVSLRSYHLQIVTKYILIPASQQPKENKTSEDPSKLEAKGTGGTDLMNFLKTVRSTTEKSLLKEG

[20] = Drug metabolism in human hepatocytes assessed as amide hydrolysis metabolite formation at 30 uM measured upto 90 mins by LC-MS analysis; format: ADME, cell-based, Hepatocyte
[21] = Clearance in rat at 0.05 mg/kg, iv; format: ADME, organism-based; conditions: in vivo
[22] = Unbound clearance in rat at 0.05 mg/kg, iv; format: ADME, organism-based; conditions: in vivo
[23] = Drug metabolism in rat hepatocytes assessed as amide hydrolysis metabolite formation at 30 uM measured upto 90 mins by LC-MS analysis; format: ADME, cell-based, Hepatocyte

| Compound | logD at 24 h, 200 µM [1] | solubility at 24 h, 200 µM [2] [µM] | solubility at 24 h, 200 µM [3] [µM] | IC50 [9] [µM] | further results |
| --- | --- | --- | --- | --- | --- |
| CCCNC(=O)C1(c2ccc(NC(=O)c3cccc(Cl)c3)cc2)CCC1 | 3.2 | – | – | – | – |
| C[C@@H](NC(=O)c1ccc(F)cc1)c1ccc2c(n1)CCCN2c1cccnc1 | 2.3 | 147 (≈ 55.3 µg/mL) | 177 (≈ 66.6 µg/mL) | – | – |
| CC(C)CC(=O)N1CCCc2cc(CNC(=O)c3ccsc3)ccc21 | 2.8 | 137 (≈ 48.8 µg/mL) | 140 (≈ 49.9 µg/mL) | 24 | inhibition [4]: inactive; Stabilty [5]: Unstable; clearance [6]: 93 mL/min/kg; half-life [7]: 0.2 h; Stabilty [8]: Unstable |
| C[C@@H](NC(=O)c1ccc(Cl)cc1)c1ccc2c(c1)C(F)(F)CCN2C(=O)c1cccc(Cl)c1 | 3.9 | < 4 | < 4 | – | – |
| CC(C)CC(=O)N1CCCc2cc(CNC(=O)c3ccc(Cl)cc3)ccc21 | 3.3 | 13 (≈ 5 µg/mL) | 13 (≈ 5 µg/mL) | 22 | – |
| C[C@@H](NC(=O)c1ccc(F)cc1)c1ccc2c(n1)CCCN2C(=O)OC1COC1 | 2 | 168 (≈ 67.1 µg/mL) | 176 (≈ 70.3 µg/mL) | – | – |
| C[C@@H](NC(=O)c1ccc(F)cc1)c1ccc2c(n1)CCCN2c1cnccn1 | 2.1 | 4 (≈ 1.51 µg/mL) | 143 (≈ 54 µg/mL) | – | – |
| C[C@@H](NC(=O)c1ccc(Cl)cc1)c1ccc2c(n1)CCCN2C(=O)c1cccc(Cl)c1 | 3.4 | 11 (≈ 5 µg/mL) | 171 (≈ 77.7 µg/mL) | 8.7 | – |
| C[C@@H](NC(=O)c1ccc(F)cc1)c1ccc2c(n1)CCCN2c1ncccn1 | 2.4 | 5 (≈ 1.89 µg/mL) | 139 (≈ 52.5 µg/mL) | 20 | – |
| C[C@@H](NC(=O)c1ccc(F)cc1)c1ccc2c(n1)CCCN2c1ccncn1 | 1.9 | 164 (≈ 61.9 µg/mL) | 157 (≈ 59.3 µg/mL) | – | – |
| CC(C)CC(=O)N1CCCc2cc(CNC(=O)c3ccc(Cl)cc3)cnc21 | 3 | 97 (≈ 37.4 µg/mL) | 185 (≈ 71.4 µg/mL) | – | – |
| C[C@@H](NC(=O)c1ccc(F)cc1)c1ccc2c(n1)CCCN2c1ccnc(C#N)n1 | 2.7 | 152 (≈ 61.2 µg/mL) | 163 (≈ 65.6 µg/mL) | – | – |
| C[C@@H](NC(=O)c1ccc(F)cc1)c1ccc2c(n1)CCCN2C(=O)OC1CC1 | 2.8 | 156 (≈ 59.8 µg/mL) | 181 (≈ 69.4 µg/mL) | 20 | IC50 (Cytochrome P450 2C9): 6.2 µM; clearance [6]: 14 mL/min/kg; bioavailability [10]: 40%; half-life [7]: 1.1 h; fraction unbound [11]: 0.094; IC50 [12]: 60 µM; Papp [13]: 32 ×10⁻⁶ cm/s; IC50 (Cytochrome P450 3A4): 60 µM; CL free [14]: 221 mL/min/kg; IC50 [15]: 60 µM; fraction unbound [16]: 0.11 |
| C[C@@H](NC(=O)c1ccc(F)cc1)c1ccc2c(n1)CCCN2c1ccccn1 | 2.7 | 151 (≈ 56.8 µg/mL) | 197 (≈ 74.2 µg/mL) | – | – |
| Cc1nccc(N2CCCc3nc([C@@H](C)NC(=O)c4ccc(F)cc4)ccc32)n1 | – | 166 (≈ 65 µg/mL) | 168 (≈ 65.8 µg/mL) | 18 | – |
| C[C@@H](NC(=O)c1ccc(F)cc1)c1ccc2c(n1)CCCN2C(=O)OCC(F)(F)F | 3 | 132 (≈ 56.2 µg/mL) | 200 (≈ 85.1 µg/mL) | – | – |
| C[C@@H](NC(=O)c1ccc(Cl)cc1)c1ccc2c(c1)CCCN2C(=O)c1cccc(Cl)c1 | 3.7 | 3 (≈ 1.36 µg/mL) | < 1 | 1 | Drug metabolism [17]: Metabolite_Detected; Drug metabolism [18]: Metabolite_Detected |
| C[C@@H](NC(=O)c1ccc(F)cc1)c1ccc2c(n1)CCCN2c1ccnc(C(F)(F)F)n1 | – | 166 (≈ 73.9 µg/mL) | 183 (≈ 81.5 µg/mL) | 25 | IC50 (Cytochrome P450 2C9): 18 µM; fraction unbound [11]: 0.05; IC50 [12]: 6 µM; fIC50 [19]: 2.1 nM; Papp [13]: 33 ×10⁻⁶ cm/s; IC50 (Cytochrome P450 3A4): 43 µM; IC50 [15]: 7 µM; fraction unbound [16]: 0.037 |
| C[C@@H](NC(=O)c1ccc(F)cc1)c1ccc2c(n1)CCCN2C(=O)OC1CCC1 | 3.2 | 134 (≈ 53.3 µg/mL) | 184 (≈ 73.1 µg/mL) | – | – |
| C[C@@H](NC(=O)c1ccc(F)cc1)c1ccc2c(n1)CCCN2C(=O)C1(C(F)(F)F)CC1 | 2.9 | 162 (≈ 70.5 µg/mL) | 187 (≈ 81.4 µg/mL) | – | Stabilty [5]: Stable; Stabilty [8]: Stable |
| O=C(NCc1ccc2c(c1)CCCN2C(=O)c1cccc(Cl)c1)c1ccc(Cl)cc1 | – | – | – | 11 | – |
| COCCOC(=O)N1CCCc2nc([C@@H](C)NC(=O)c3ccc(F)cc3)ccc21 | 2.3 | 165 (≈ 66.2 µg/mL) | 196 (≈ 78.7 µg/mL) | – | – |
| Cc1cc(N2CCCc3nc([C@@H](C)NC(=O)c4ccc(F)cc4)ccc32)ccn1 | 2 | 165 (≈ 64.4 µg/mL) | 177 (≈ 69.1 µg/mL) | 0.73 | Stabilty [5]: Stable; Stabilty [8]: Stable |
| C[C@H](NC(=O)c1ccc(Cl)cc1)c1ccc2c(c1)CCCN2C(=O)c1cccc(Cl)c1 | 3.7 | 3 (≈ 1.36 µg/mL) | < 1 | 1 | – |
| C[C@@H](NC(=O)c1ccc(Cl)cc1)c1cc2c(cn1)N(C(=O)c1cccc(Cl)c1)CCC2 | 3.3 | 27 (≈ 12.3 µg/mL) | 152 (≈ 69.1 µg/mL) | 16 | – |
| C[C@@H](NC(=O)c1ccc(Cl)cc1)c1ccc2c(c1)OCCN2C(=O)c1cccc(Cl)c1 | 3.6 | 3 (≈ 1.37 µg/mL) | 1 (≈ 0.455 µg/mL) | 6.9 | – |
| CCOC(=O)N1CCCc2nc([C@@H](C)NC(=O)c3ccc(F)cc3)ccc21 | 2.7 | 168 (≈ 62.4 µg/mL) | 183 (≈ 68 µg/mL) | – | – |
| C[C@@H](NC(=O)c1ccc(F)cc1)c1ccc2c(n1)CCCN2C(=O)c1cccc(Cl)c1 | 3.1 | 82 (≈ 35.9 µg/mL) | 148 (≈ 64.8 µg/mL) | – | half-life [7]: 1.6 h; fraction unbound [11]: 0.029; IC50 [12]: 20 µM; Drug metabolism [20]: Metabolite_Detected; Papp [13]: 32 ×10⁻⁶ cm/s; IC50 (Cytochrome P450 3A4): 20 µM; clearance [21]: 57 mL/min/kg; CL free [22]: 1566 mL/min/kg; Drug metabolism [23]: Metabolite_Detected; IC50 [15]: 20 µM; fraction unbound [16]: 0.037 |
| COC(=O)N1CCCc2nc([C@@H](C)NC(=O)c3ccc(F)cc3)ccc21 | 2.3 | 154 (≈ 55 µg/mL) | 167 (≈ 59.7 µg/mL) | – | – |
